From patent publication US20240083897A1, “GCN2 MODULATING COMPOUNDS AND USES THEREOF” (HiberCell, Inc., priority 2021, published 2024)
pIC50: −log10 of the molar value.

Target: GCN2 (Homo sapiens (Human), UniProt Q9P2K8)
Experiment: TR-FRET biochemical assay for inhibition of GCN2
Details: GCN2 2 nM, 100 nM GFP-eIF2a, 150 μM ATP, TR-FRET

Sequence of GCN2 (Q9P2K8 whole entry): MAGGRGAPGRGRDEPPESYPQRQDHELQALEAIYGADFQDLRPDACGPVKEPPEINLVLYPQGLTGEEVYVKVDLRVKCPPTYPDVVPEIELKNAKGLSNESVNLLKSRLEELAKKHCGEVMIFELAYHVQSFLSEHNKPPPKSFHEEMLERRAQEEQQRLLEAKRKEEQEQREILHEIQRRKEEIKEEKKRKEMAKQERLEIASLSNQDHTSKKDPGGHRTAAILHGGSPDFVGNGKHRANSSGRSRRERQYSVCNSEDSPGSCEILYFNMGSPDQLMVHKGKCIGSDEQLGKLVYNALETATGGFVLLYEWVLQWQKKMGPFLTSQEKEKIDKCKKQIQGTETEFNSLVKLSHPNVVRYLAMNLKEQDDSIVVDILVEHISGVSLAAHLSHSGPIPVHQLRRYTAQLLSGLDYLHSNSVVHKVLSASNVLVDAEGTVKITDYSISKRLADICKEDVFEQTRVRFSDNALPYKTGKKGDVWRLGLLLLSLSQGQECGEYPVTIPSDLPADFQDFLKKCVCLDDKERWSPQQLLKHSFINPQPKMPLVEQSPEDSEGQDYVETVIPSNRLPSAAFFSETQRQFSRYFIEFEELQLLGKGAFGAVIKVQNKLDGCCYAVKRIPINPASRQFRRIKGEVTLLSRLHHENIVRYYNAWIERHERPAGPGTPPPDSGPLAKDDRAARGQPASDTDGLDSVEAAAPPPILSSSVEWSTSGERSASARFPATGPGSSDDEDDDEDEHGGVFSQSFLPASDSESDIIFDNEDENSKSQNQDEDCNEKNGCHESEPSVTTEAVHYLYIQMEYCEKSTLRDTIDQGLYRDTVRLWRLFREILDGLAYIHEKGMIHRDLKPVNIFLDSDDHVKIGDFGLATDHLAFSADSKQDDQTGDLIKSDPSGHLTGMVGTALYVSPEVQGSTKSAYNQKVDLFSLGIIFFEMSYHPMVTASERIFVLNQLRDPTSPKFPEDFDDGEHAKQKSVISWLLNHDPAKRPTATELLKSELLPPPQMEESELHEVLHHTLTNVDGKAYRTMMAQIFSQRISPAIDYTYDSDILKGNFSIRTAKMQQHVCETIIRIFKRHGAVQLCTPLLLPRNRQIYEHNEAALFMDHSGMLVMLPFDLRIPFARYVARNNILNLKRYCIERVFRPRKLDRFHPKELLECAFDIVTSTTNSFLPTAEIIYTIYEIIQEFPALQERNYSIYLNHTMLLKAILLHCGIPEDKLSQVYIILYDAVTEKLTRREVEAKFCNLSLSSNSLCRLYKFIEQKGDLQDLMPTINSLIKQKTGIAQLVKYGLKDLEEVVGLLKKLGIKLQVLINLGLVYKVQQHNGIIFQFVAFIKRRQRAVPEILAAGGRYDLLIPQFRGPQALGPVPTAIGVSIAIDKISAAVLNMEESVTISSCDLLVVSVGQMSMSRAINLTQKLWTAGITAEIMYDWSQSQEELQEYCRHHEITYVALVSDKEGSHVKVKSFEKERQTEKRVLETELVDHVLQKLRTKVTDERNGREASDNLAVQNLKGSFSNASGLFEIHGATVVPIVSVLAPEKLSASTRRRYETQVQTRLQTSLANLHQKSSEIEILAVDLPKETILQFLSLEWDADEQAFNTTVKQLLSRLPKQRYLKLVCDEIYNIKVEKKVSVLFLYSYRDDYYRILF

Compound	pIC50
COc1ncc(F)cc1S(=O)(=O)Nc1ccc(F)c(-c2ccn3c(-c4ncc[nH]4)ncc3c2)c1F [Compound 36, N-[2,4-difluoro-3-[3-(1H-imidazol-2-yl)imidazo[1,5-a]pyridin-7-yl]phenyl]-5-fluoro-2-methoxypyridine-3-sulfonamide]	> 7.30
COc1ncc(Cl)cc1S(=O)(=O)Nc1ccc(F)c(-c2ccc3c(-c4ccn(C)n4)ncn3c2)c1F [Compound 37, 5-chloro-N-[2,4-difluoro-3-[1-(1-methylpyrazol-3-yl)imidazo[1,5-a]pyridin-6-yl]phenyl]-2-methoxypyridine-3-sulfonamide]	> 7.30
COc1ncc(Cl)cc1S(=O)(=O)Nc1ccc(F)c(-c2ccc3c(-c4ncc[nH]4)ncn3c2)c1C#N [Compound 38, 5-chloro-N-[2-cyano-4-fluoro-3-[1-(1H-imidazol-2-yl)imidazo[1,5-a]pyridin-6-yl]phenyl]-2-methoxypyridine-3-sulfonamide]	> 7.30
N#Cc1cc2c(c(S(=O)(=O)Nc3ccc(F)c(-c4ccc5c(-c6ncc[nH]6)ncn5c4)c3F)c1)CCC2O (stereo not drawn) [Compound 39, 6-cyano-N-[2,4-difluoro-3-[1-(1H-imidazol-2-yl)imidazo[1,5-a]pyridin-6-yl]phenyl]-1-hydroxy-2,3-dihydro-1H-indene-4-sulfonamide]	> 7.30
COc1ncc(C#N)cc1S(=O)(=O)Nc1ccc(F)c(-c2ccn3c(-c4ncc[nH]4)ncc3c2)c1F [Compound 40, 5-cyano-N-[2,4-difluoro-3-[3-(1H-imidazol-2-yl)imidazo[1,5-a]pyridin-7-yl]phenyl]-2-methoxypyridine-3-sulfonamide]	> 7.30
COc1ncc(Cl)cc1S(=O)(=O)Nc1ccc(F)c(-c2ccn3c(-c4ncc[nH]4)ncc3c2F)c1F [Compound 41, 5-chloro-N-[2,4-difluoro-3-[8-fluoro-3-(1H-imidazol-2-yl)imidazo[1,5-a]pyridin-7-yl]phenyl]-2-methoxypyridine-3-sulfonamide]	> 7.30
COc1ncc(C#N)cc1S(=O)(=O)Nc1ccc(F)c(-c2ccn3c(-c4ncc[nH]4)ncc3c2F)c1F [Compound 42, 5-cyano-N-[2,4-difluoro-3-[8-fluoro-3-(1H-imidazol-2-yl)imidazo[1,5-a]pyridin-7-yl]phenyl]-2-methoxypyridine-3-sulfonamide]	> 7.30
COc1ncc(Cl)cc1S(=O)(=O)Nc1ccc(F)c(-c2ccc3c(-c4nc(C#N)c[nH]4)ncn3c2)c1F [Compound 43, N-[3-[1-(4-cyano-1H-imidazol-2-yl)imidazo[1,5-a]pyridin-6-yl]-2,4-difluorophenyl]-5-chloro-2-methoxypyridine-3-sulfonamide]	> 7.30
Cc1ncc(F)cc1S(=O)(=O)Nc1ccc(F)c(-c2ccc3c(-c4nc(C#N)c[nH]4)ncn3c2)c1F [Compound 44, N-[3-[1-(4-cyano-1H-imidazol-2-yl)imidazo[1,5-a]pyridin-6-yl]-2,4-difluorophenyl]-5-fluoro-2-methylpyridine-3-sulfonamide]	> 7.30
COc1ncc(F)cc1S(=O)(=O)Nc1ccc(F)c(-c2ccc3c(-c4nc(Cl)c[nH]4)ncn3c2)c1F [Compound 45, N-[3-[1-(4-chloro-1H-imidazol-2-yl)imidazo[1,5-a]pyridin-6-yl]-2,4-difluorophenyl]-5-fluoro-2-methoxypyridine-3-sulfonamide]	> 7.30
COc1ncc(F)cc1S(=O)(=O)Nc1ccc(F)c(-c2ccc3c(-c4ccn(C)n4)ncn3c2)c1F [Compound 46, N-[2,4-difluoro-3-[1-(1-methylpyrazol-3-yl)imidazo[1,5-a]pyridin-6-yl]phenyl]-5-fluoro-2-methoxypyridine-3-sulfonamide]	> 7.30
COc1ncc(F)cc1S(=O)(=O)Nc1ccc(F)c(-c2ccn3c(-c4ncc[nH]4)ncc3c2F)c1F [Compound 47, N-[2,4-difluoro-3-[8-fluoro-3-(1H-imidazol-2-yl)imidazo[1,5-a]pyridin-7-yl]phenyl]-5-fluoro-2-methoxypyridine-3-sulfonamide]	> 7.30
